Results: publication PMC10708353, “Malvidin and Its Mono- and Di-Glucosides Forms: A Study of Combining Both In Vitro and Molecular Docking Studies Focused on Cholinesterase, Butyrylcholinesterase, COX-1 and COX-2 Activities” (Molecules, 2023)
Read-outs that look alike come from different tables or passages of the source. Marks after values point to notes of the source that are not given here.

How the values were obtained:
[1] = target: T1, COX-2 (human recombinant) (Homo sapiens, UniProt P35354); test: COX colorimetric inhibitor screening assay, COX-2; assay type: biochemical; conditions: for Selectivity Index COX-2/COX-1: ratio of IC50 COX-2 to IC50 COX-1
T1 construct: purchased Cayman Chemical, Ann Arbor, MI, USA 701050
T1 sequence (P35354 18-604): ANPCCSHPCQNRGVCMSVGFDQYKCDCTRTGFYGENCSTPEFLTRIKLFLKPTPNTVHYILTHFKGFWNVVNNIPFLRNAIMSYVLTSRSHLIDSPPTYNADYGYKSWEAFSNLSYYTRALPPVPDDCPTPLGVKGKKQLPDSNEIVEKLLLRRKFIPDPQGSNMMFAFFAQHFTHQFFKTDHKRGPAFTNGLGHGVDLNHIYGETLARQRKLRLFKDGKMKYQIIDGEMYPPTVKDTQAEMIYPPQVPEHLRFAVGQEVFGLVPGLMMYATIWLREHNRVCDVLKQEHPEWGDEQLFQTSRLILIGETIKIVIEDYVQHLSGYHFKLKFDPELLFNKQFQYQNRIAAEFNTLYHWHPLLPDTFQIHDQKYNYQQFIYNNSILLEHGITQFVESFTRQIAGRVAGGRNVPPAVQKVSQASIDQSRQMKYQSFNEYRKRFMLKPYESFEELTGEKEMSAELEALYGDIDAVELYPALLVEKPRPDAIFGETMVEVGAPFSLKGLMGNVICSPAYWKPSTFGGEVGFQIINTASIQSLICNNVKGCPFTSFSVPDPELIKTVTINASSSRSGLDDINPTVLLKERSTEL
Protocol: (§1) Firstly, the plate was carefully shaken for a few seconds and incubated for 5 min at 25 °C. Secondly, 20 μL of colorimetric substrate solution was added to each plate’s well. It was the addition of 20 μL of arachidonic acid (final concentration in reaction mixture 100 µM) which initiated the reaction. Thirdly, the plate was shaken again for a few seconds and incubated for two min at 25 °C. […] The percentage of COX inhibition was calculated using the Equation (1): […]
(§2) The IC50 parameter was calculated referring to plots showing the relation between percentage of COX inhibition and concentration of the compounds.

COX-1 (ovine) = target: T2, COX-1 (ovine) (Ovis aries, UniProt P05979); test: COX colorimetric inhibitor screening assay, COX-1; assay type: biochemical
T2 construct: purchased Cayman Chemical, Ann Arbor, MI, USA 701050
T2 sequence (P05979 25-600): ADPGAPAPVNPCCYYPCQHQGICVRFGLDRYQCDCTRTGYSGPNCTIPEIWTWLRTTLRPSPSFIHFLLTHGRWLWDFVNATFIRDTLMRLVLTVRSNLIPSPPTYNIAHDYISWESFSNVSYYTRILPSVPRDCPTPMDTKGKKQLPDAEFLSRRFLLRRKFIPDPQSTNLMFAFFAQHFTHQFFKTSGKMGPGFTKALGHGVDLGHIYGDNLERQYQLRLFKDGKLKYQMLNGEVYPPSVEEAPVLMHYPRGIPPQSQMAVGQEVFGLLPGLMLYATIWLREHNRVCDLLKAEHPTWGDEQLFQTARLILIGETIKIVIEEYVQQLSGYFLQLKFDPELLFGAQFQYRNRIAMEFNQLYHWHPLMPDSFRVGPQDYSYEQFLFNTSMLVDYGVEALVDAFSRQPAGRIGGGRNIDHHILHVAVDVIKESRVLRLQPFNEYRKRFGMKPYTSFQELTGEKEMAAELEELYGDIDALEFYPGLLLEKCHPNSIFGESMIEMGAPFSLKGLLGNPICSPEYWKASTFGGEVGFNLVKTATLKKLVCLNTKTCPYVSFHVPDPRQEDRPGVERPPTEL
Protocol: as §1, §2

[2] = target: T3, Butyrylcholinesterase from equine serum (BChE) (Equus caballus, UniProt P81908); test: Butyrylcholinesterase inhibition assay (Ellman method, modified); assay type: biochemical
T3 construct: Butyrylcholinesterase from equine serum (BChE); purchased Merck kGaA, Darmstadt, Germany; host or cells: equine serum
Description: (§3) 5,5′-Dithiobis(2-nitrobenzoic acid), (DTNB), acetylthiocholine iodide, butyryl-thiocholine iodide, acetylcholinesterase from Electrophorus electricus, type VI-S (aChE), Butyrylcholinesterase from equine serum (BChE), neostigmine bromide, and sodium dodecyl sulfate (SDS) were purchased from Merck kGaA, Darmstadt, Germany.
(§4) Referring to both the Ellman and Jin et al. methods, we identified acetylcholinesterase/butyrylcholinesterase activity, implementing minor modifications. In brief, the assay was carried out on a 96-well plate, with each well containing 140 µL 0.1 M phosphate buffer (pH 8.0), 10 µL of stock solution of Mv, or Mv 3-glc or Mv 3,5-diglc, 10 µL AChE/BChE (1 units/mL). The plate was incubated for 10 min at 25 °C. Subsequently, 10 μL of a 10 mM DTNB was added to the reaction mixture. In the following step, the reaction was initiated by adding 10 μL of a 14 mM acetylthiocholine iodide/butyryl-thiocholine iodide. The plate was shaken for one minute and finally 20 µL of 5% SDS was added in order to stop the reaction. Control wells, which contained the same composition except for the studied compounds (10 µL, 70% ethanol), were included. […] All of the reactions were performed in five repetitions. The percent of AChE/BChE inhibition was calculated using the following formula:(1) %Inhibition=Ac−As/Ac·100% where: As refers to the absorbance of the sample containing Mvs and Ac refers to the absorbance of the control sample. The studies of AChE and BChE inhibition were also performed depending on the concentration of the drug, neostigmine, as a positive control.

[3] = target: T4, acetylcholinesterase from Electrophorus electricus, type VI-S (AChE) (Electrophorus electricus, UniProt O42275); test: Acetylcholinesterase inhibition assay (Ellman method, modified); assay type: biochemical
T4 construct: purchased Merck kGaA, Darmstadt, Germany
Description: as §3, §4

[4] = physiological pH, species established in previous publication, cited from earlier work
[5] = compound concentration 100 µM, read-out: Inhibition of BChE (%)
[6] = compound concentration 100 µM, read-out: Inhibition of AChE (%)
[7] = compound concentration 100 µM, 100 µM

T4 sequence (O42275 24-633): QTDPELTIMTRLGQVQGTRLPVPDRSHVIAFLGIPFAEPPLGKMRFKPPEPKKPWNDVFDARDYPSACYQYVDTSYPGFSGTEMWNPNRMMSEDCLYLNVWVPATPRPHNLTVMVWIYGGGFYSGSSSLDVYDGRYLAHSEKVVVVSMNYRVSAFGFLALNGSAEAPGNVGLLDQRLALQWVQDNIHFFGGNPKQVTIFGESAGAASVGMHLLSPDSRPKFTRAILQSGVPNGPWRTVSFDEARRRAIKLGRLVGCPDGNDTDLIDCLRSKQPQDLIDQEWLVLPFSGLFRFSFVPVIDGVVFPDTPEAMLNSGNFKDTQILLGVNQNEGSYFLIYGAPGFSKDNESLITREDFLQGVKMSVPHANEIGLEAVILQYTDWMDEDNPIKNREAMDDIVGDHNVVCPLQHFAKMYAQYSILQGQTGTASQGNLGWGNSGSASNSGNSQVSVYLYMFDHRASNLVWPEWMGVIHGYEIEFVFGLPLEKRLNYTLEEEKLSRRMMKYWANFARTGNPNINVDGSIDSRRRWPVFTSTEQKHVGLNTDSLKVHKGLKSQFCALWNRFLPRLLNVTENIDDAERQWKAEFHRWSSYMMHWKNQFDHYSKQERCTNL
T3 sequence (P81908 whole entry): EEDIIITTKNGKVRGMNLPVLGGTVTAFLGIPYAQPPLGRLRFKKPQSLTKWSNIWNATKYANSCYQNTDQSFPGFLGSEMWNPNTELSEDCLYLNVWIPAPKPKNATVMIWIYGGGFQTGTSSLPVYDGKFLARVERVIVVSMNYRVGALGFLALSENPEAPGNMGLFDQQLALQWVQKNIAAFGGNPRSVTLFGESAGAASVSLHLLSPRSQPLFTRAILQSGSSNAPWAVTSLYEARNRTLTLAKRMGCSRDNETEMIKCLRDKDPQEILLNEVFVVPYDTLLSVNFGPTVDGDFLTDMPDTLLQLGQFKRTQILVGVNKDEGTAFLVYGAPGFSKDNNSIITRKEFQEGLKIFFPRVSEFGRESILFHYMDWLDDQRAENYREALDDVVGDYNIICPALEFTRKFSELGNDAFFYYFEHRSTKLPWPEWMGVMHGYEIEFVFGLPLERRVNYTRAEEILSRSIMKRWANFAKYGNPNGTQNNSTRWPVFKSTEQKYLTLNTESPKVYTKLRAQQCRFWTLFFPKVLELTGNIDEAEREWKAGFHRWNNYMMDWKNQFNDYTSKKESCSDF

Row | SMILES | IC50 [1] | Selectivity Index COX-2/COX-1 [1] | IC50 (COX-1 (ovine)) | inhibition at 100 µM [2, 5] | inhibition at 100 µM [3, 6] | fM (population of the species) [4] | fM (population of the species) ([4]; listed as Mv 3,5-diglc^–) | Inhibition of BChE (%) [2, 7] | inhibition at 100 µM ([2]; read-out: Inhibition of BChE (%), compound concentration 100 µM) | Inhibition of AChE (%) [3, 7] | inhibition at 100 µM ([3]; read-out: Inhibition of AChE (%), compound concentration 100 µM) | fM (population of the species) ([4]; listed as Mv 3-glc^2−) | fM (population of the species) ([4]; listed as Mv 3-glc^−) | fM (population of the species) ([4]; listed as Mv^2−) | fM (population of the species) ([4]; listed as Mv^3−) | fM (population of the species) ([4]; listed as Mv^−) | inhibition at 20.28 µM ([2]; neostigmine concentration 20.28 µM, positive control) | IC50 ([2]; positive control) | inhibition at 0.17 µM ([3]; neostigmine concentration 0.17 µM, positive control) | IC50 ([3]; positive control)
1 | COc1cc(-c2[o+]c3cc(O)cc(OC4OC(CO)C(O)C(O)C4O)c3cc2OC2OC(CO)C(O)C(O)C2O)cc(OC)c1O (stereo not drawn) [Mv 3,5-diglc, malvidin 3,5-O-diglucoside] | 66.5 ± 1.93 µM | 0.83 | 90.4 ± 1.92 µM | 13.4 ± 2.4% | 11.9 ± 4.5% | 39.19% | 60.70% | – | – | – | – | – | – | – | – | – | – | – | – | –
2 | COc1cc(-c2[o+]c3cc(O)cc(O)c3cc2OC2OC(CO)C(O)C(O)C2O)cc(OC)c1O (stereo not drawn) [Mv 3-glc, malvidin 3-O-glucoside] | 39.9 ± 3.02 µM | 0.53 | 74.78 ± 0.06 µM | – | – | 3.49% | – | 22.1 ± 3.0 ^a % | 22.1 ± 3% | 26.3 ± 3.1 ^a % | 26.3 ± 3.06% | 18.33% | 78.18% | – | – | – | – | – | – | –
3 | COc1cc(-c2[o+]c3cc(O)cc(O)c3cc2O)cc(OC)c1O [Mv, malvidin] | 2.76 ± 0.16 µM | 0.22 | 12.4 ± 0.7 µM | 10.2 ± 2.2% | 19.5 ± 2.3% | 39.56% | – | – | – | – | – | – | – | 8.08% | 0.13% | 52.15% | – | – | – | –
4 | CN(C)C(=O)Oc1cccc([N+](C)(C)C)c1 [Neostigmine, neostigmine bromide, reference compound] | – | – | – | – | – | – | – | – | – | – | – | – | – | – | – | – | 50 ± 4.2% | 20.3 ± 1.7 µM | 50 ± 1.2% | 0.17 ± 0.01 µM
